Data published in patent US20220047716A1, “COMBINATION THERAPIES WITH ANTI-FOLATE RECEPTOR ANTIBODY CONJUGATES” (SUTRO BIOPHARMA, INC., priority 2018, published 2022).
Values joined by “and” are separate entries in the source; they are usually repeats but may differ in a detail not shown here. Identical values can stand only once.

Columns and labels:
Igrov1 tumors = experiment: Igrov1 ovarian tumor xenograft efficacy in SCID Beige mice; format: in vivo; conditions: Igrov1, day 29; ADC Molecule 4 2.5 mg/kg single dose; carboplatin 60 mg/kg q7dx2
Procedure: Igrov1 ovarian cancer cells were implanted subcutaneously into SCID Beige mice and treated with a single dose of 2.5 mg/kg FolRα ADC variants listed in Table 20. ADCs were administered when tumors reached ˜150 mm^3.

[1] = Pharmacokinetics of free drugs (I) and (II) in Sprague-Dawley rats; format: in vivo; conditions: IV bolus 0.4 or 1 mg/kg, data not shown
Procedure: To assess the pharmacokinetic profile of free drug (I), female Sprague-Dawley rats (mean body weight 250 g) were given either a 0.4 mg/kg or 1 mg/kg dose by IV bolus administration (N=three animal per dose level) via an indwelling jugular vein catheter. Blood samples were collected at […], 1, 2, 8, 24, 32, 48, and 72 hour post-dose. Levels of free drug (I) and (II) were measured by LC-MS/MS and non-compartmental pharmacokinetic analysis was conducted using Phoenix WinNonlin Version 6.4 (Pharsight Corporation). The PK of free drug (I) could not be estimated due to the fact that concentrations of (I) increased from 2 to 8 hours and were undetectable thereafter.

[2] = Body weight change in rats given free drugs; format: in vivo; conditions: IV bolus, free drug (I) two doses (0.4, 1 mg/kg), free drug (II) 0.4 mg/kg
MC38-hFolRα tumors = experiment: MC38-hFolRα tumor model, combination with Avelumab; conditions: ADC Molecule 4 10 or 15 mg/kg once IV; Avelumab q3dx3 intraperitoneally
Procedure: Growth curves are shown until >50% of animals in the single agent treatment groups were euthanized due to reaching tumor size limit based on IACUC protocol. […] Statistical analysis for comparison to vehicle control was performed using one-way ANOVA with Dunnett's multiple comparisons test. A probability of less than 5% (p<0.05) was considered as significant. […] All graphs are presented as mean or individual values±SEM.

N.N.O=C([O-])C1(C(=O)[O-])CCC1.[Pt+2] [carboplatin]
Final mean tumor size (Igrov1 tumors): 842 mm^3 | Tumor growth inhibition (TGI) (Igrov1 tumors): 70% and 47%

CN[C@H](C(=O)N[C@H](C(=O)N(C)[C@H](/C=C(\C)C(=O)O)C(C)C)C(C)(C)C)C(C)(C)c1cccc(N)c1 [free drug (I)]
Plasma level of free drug [1]: undetectable at 24 hours post dose | Effect on body weight [2]: did not have an effect on the body weight of the animals

COc1cc2cc(c1Cl)N(C)C(=O)C[C@H](OC(=O)[C@H](C)N(C)C(=O)CCC(C)(C)S)[C@]1(C)O[C@H]1[C@H](C)[C@@H]1C[C@@](O)(NC(=O)O1)[C@H](OC)/C=C/C=C(/C)C2 [free drug (II), reference compound]
Effect on body weight [2]: progressive body weight loss was observed

Avelumab: PD-L1 inhibitor Avelumab (clinical grade)
Initial effect on MC38-hFolRα tumor growth (MC38-hFolRα tumors): tumor stasis until approximately day 7
